{"source": "patent US4520014A", "about": "(priority 1979, dated 1985)", "key": {"[1]": {"tested_on": "fluid secretion caused by the enterotoxin(s) present in the culture filtrate (enteropathogenic strain of E. coli)", "assay": "animal or person", "format": "in vivo, Mice"}, "[2]": {"tested_on": "fluid secretion caused by material prepared by cell lysis of an enteropathogenic strain of E. coli", "assay": "Infant rabbit test: inhibition of fluid secretion after oral challenge with E. coli cell lysis material", "format": "in vivo, Rabbits", "settings": "for % Fluid Inhibition: Rabbit, hydrochloride salt", "procedure": "Infant rabbits 7-10 days old are dosed with the compound under investigation orally 45 min prior to oral challenge with 50 ml/kg bodyweight of material prepared by cell lysis of an enteropathogenic strain of E. coli. Control animals receive drug vehicle 45 mins prior to challenge with a similar volume of material. 5-7 Hours after oral administration of the challenge the animals are killed and gut weight/remaining bodyweight ratios calculated and the percentage fluid inhibition determined as above."}, "[3]": {"tested_on": "diarrhoea caused by culture filtrate prepared from an enteropathogenic strain of E. coli", "assay": "Piglet test: inhibition of scour after oral challenge with E. coli culture filtrate", "format": "in vivo, Piglets", "settings": "scour score over 7 h, hydrochloride salt", "procedure": "2-4 Day old piglets are dosed with the compound orally 45 min prior to oral challenge with 25 ml of culture filtrate prepared from an enteropathogenic strain of E. coli. Control animals receive drug vehicle 45 min prior to challenge with a similar volume of material. Animals are observed for diarrhoea over a 7 hour period and the severity of scour scored on a 0-3 basis for each animal at hourly intervals. The percentage inhibition in treated animals is determined as: [formula]"}, "[4]": {"tested_on": "intestinal secretion induced by cholera toxin", "settings": "alleged in G. N. Mir et al. (1978); cited from earlier work"}, "E. coli P155": {"tested_on": "E. coli P155", "format": "in vivo, Piglets", "settings": "n = 14"}, "[5]": {"settings": "Mus musculus, po, 2 h; read-out: % Fluid Inhibition"}, "[6]": {"settings": "10 mg/kg oral, 45 min before challenge"}}, "note": "Structures can show the parent of a compound that is named as a salt. Where two headings read alike, the source gives them in different places."}
{"compound": "c1cc2c(c(NC3=NCCN3)c1)CCCC2", "note": "[Tramazoline]", "values": [{"measurement": "inhibition in vivo at 10 mg/kg", "setting": "[1]; Mus musculus, po, 2 h", "result": 44, "unit": "%"}]}
{"compound": "Cc1cc(C(C)(C)C)cc(C)c1CC1=NCCN1", "note": "[Xylometazoline]", "values": [{"measurement": "% Fluid Inhibition", "setting": "[2]; 20 mg/kg oral", "result": 119, "unit": "%"}, {"measurement": "inhibition in vivo at 8.25 mg/kg", "setting": "[1]; Mus musculus, po, 2 h", "result": 44, "unit": "%"}, {"measurement": "% Fluid Inhibition", "setting": "[3]; 2 mg/kg oral", "result": 44, "unit": "%"}]}
{"compound": "CCc1cccc(CC)c1NC1=NCCN1", "note": "[ST91]", "values": [{"measurement": "inhibition in vivo at 5 mg/kg", "setting": "[1]; Mus musculus, po, 2 h", "result": 56, "unit": "%"}, {"measurement": "inhibition in vivo at 1 mg/kg", "setting": "[1]; [5]", "result": 22, "unit": "%"}]}
{"compound": "c1ccc2c(CC3=NCCN3)cccc2c1", "note": "[Naphazoline]", "values": [{"measurement": "% Fluid Inhibition", "setting": "[2]; [6]", "result": 32, "unit": "%"}, {"measurement": "inhibition in vivo at 10 mg/kg", "setting": "[1]; Mus musculus, po, 2 h", "result": 59, "unit": "%"}, {"measurement": "% Fluid Inhibition", "setting": "[3]; [6]", "result": 88, "unit": "%"}]}
{"compound": "Clc1cccc(Cl)c1NC1=NCCN1", "note": "[Clonidine]", "values": [{"measurement": "% Fluid Inhibition", "setting": "[2]; 5 mg/kg oral", "result": 26, "unit": "%"}, {"measurement": "inhibition in vivo at 1 mg/kg", "setting": "[1]; Mus musculus, po, 2 h, read-out: % Fluid Inhibition", "result": 42, "unit": "%"}, {"measurement": "% Fluid Inhibition", "setting": "[3]; 0.2 mg/kg oral", "result": 64, "unit": "%"}]}
{"compound": "N=C(N)NC(=O)Cc1c(Cl)cccc1Cl", "note": "[BS 100-141, 2,6-dichlorophenylacetylguanidine hydrochloride]", "values": [{"measurement": "inhibition in vivo at 1 mg/kg", "setting": "[1]; [5]", "result": 45, "unit": "%"}, {"measurement": "% Fluid Inhibition", "setting": "[3]; 1 mg/kg oral", "result": 76, "unit": "%"}]}
{"compound": "Cc1cc(C(C)(C)C)c(O)c(C)c1CC1=NCCN1", "note": "[Oxymetazoline]", "values": [{"measurement": "inhibition in vivo at 0.1 mg/kg", "setting": "[1]; Mus musculus, po, 2 h", "result": 78, "unit": "%"}]}
{"compound": "CNC(=N)NC(=O)Nc1c(C)cccc1C", "note": "[Lidamidine]", "values": [{"measurement": "inhibition of intestinal secretion induced by cholera toxin", "setting": "[4]", "result": "inhibited intestinal secretion induced by cholera toxin"}, {"measurement": "% Fluid Inhibition", "setting": "[2]; 50 mg/kg oral", "result": -7, "unit": "%"}, {"measurement": "activity in the rabbit test", "setting": "[2]; in words", "result": "inactive"}, {"measurement": "inhibition in vivo at 50 mg/kg", "setting": "[1]; Mus musculus, po, 2 h", "result": 33, "unit": "%"}, {"measurement": "activity relative to the Compounds in the mouse test", "setting": "[1]; mouse, in vivo", "result": "at least five times less active than the Compounds"}]}
{"compound": "CC1(C)S[C@@H]2[C@H](NC(=O)[C@H](N)c3ccc(O)cc3)C(=O)N2[C@H]1C(=O)O", "note": "[Amoxycillin]", "values": [{"measurement": "Mean scour score ± S.E.M. (during 6 hrs after treatment)", "setting": "E. coli P155", "result": "2.0 ± 0.2"}]}
{"compound": "Cc1ccc2ccccc2c1CC1=NCCN1", "note": "[2-Methyl Naphazoline]", "values": [{"measurement": "inhibition in vivo at 20 mg/kg", "setting": "[1]; Mus musculus, po, 2 h", "result": 82, "unit": "%"}]}
